Test results published in patent publication US20030086869A1, “Methods and kits for diagnosing a pancreatic-based fat malabsorption disorder” (priority 2001, published 2003).

Key:
Format in all cases: in vivo, human
[1] = MBT absorption of PA and HA prior to Orlistat in fifteen healthy subjects; conditions: PA 2.5 grams and THA 8.0 grams, FIG. 10, 11
From the text: Fifteen healthy adult subject volunteers (9 women) 18 to 50 years of age were recruited through local advertisements. Exclusion criteria included: any chronic illness known to affect nutrient absorption, body mass index (BMI) of less than 21 or greater than 30 kg/m^2 (i.e., outside of generally accepted healthy adult ranges), therapy with lipid lowering drugs, diabetes mellitus (NIDDM, IDDM) and disorders associated with altered energy metabolism (e.g., hypothyroidism). This adult age range was selected because Orlistat is FDA approved in adults. In addition, adults are able to plan the experimental days for cooperation with four days of the research study diet, outpatient 72-hour stool collection and phlebotomy requirements. […]
Subjects underwent a 12-hour fast from 2100 hours on day #1 of the study. […] Upon arrival at the study center on the morning of day #2, subjects had their weight and height measured, and an experienced phlebotomist inserted a self-retaining intravenous catheter with a heparin lock for serial blood sampling. […] The number and timing of blood samples was determined by the experiments in Example 1, and was expected to be six or fewer samples over an eight-hour or less time period. […]

[2] = MBT serum levels of PA and HA in subjects with CF and pancreatic insufficiency on and off pancreatic enzymes
Description: (§1) Both whole post-absorptive serum and isolated chylomicron fractions of the serum are analyzed for fatty acid composition. Chylomicrons are isolated from plasma by centrifugation at d=1.006 g/ml for 30 minutes at 26,000 g (Hatch, F. T., et al., 1968; Adv. Lipid Res., 6:1-68). Total lipids are extracted from each specimen following the method of Bligh and Dyer (Bligh, E. G., et al., 1959; Can. J. Biochem., 37:911-917). Following transmethylation of the lipid extracts using BF3-methanol, fatty acid composition is determined using gas-liquid chromatographic (GLC) analysis using a Hewlett Packard GLC equipped with a flame ionization detector, an automatic 7673 sampler and […]×0.25 mm ID column composed of a 0.20 micron film of SP-2560 (Supelco, Bellefonte, Pa.) (Morrison, W., et al., 1964; J. Lipid Res. 5:600-608). The temperature is programmed to change from 140° C. to 240° C. at a rate of 4° C./minute. At the time of extraction, heptadecanoic methyl ester is added as an internal standard.
Subjects with CF and pancreatic insufficiency currently treated with pancreatic enzymes, aged greater than 8 years were recruited. Exclusion criteria included: forced expiratory volume of the lungs at 1 second (FEV1) <40%, a history of fibrosing colonopathy or significant bowel resection (>10 cm), mental retardation, significant neurological deficit, developmental disability and autism. Subjects are in their usual state of good health. This age range was selected because it includes children during active growth where information regarding degree of malabsorption leads to improved nutritional intervention and pancreatic enzyme therapy. Also, children greater than 8 years of age are mature enough to provide assent and feedback concerning acceptability and tolerance of the MBT.
In the experiments shown in FIGS. 12 through 15, three subjects with CF were given either 30 mg/kg PA and 60 mg/kg THA (2 subjects) or 30 mg/kg PA and 90 mg/kg THA (1 subject) in a digestible composition consisting of a liquid breakfast shake after a 12 hour fast. The subjects were tested while they were taking their usual doses of pancreatic enzymes and then were tested again (more than one week later) when they were not taking pancreatic enzymes. Blood was sampled at baseline and then at hourly intervals from 2 to 8 hours and then sampled again at 24 hours. Subjects were fed a prepared lunchtime meal with a known quantity of fat (80 grams). The individual results for fat absorption for the 3 subjects with CF on enzymes are presented in FIG. 12 for PA and FIG. 13 for HA. For the same 3 subjects with CF off enzymes, the results for fat absorption are presented in FIG. 14 for PA and FIG. 15 for HA.
Additional experiments were performed on six subjects with CF either on or off pancreatic enzyme treatment. The serum levels of PA and HA in these six subjects on and off pancreatic enzyme treatment are presented in FIG. 16 anf FIG. 17, respectively.

[3] = Malabsorption Blood Test (MBT): serum levels of PA and HA after oral PA and THA test breakfast meal in healthy control subjects
Description: as §1
Healthy control subjects between 18 and 50 years of age were selected. Exclusion criteria included: any chronic illness known to affect nutrient absorption, body mass index (BMI) <21 or >30 kg/m^2 (generally accepted healthy adult ranges), therapy with lipid lowering drugs, diabetes mellitus (NIDDM and IDDM), disorders associated with altered energy metabolism (e.g., hypothyroidism) and disinterest in participating in all three dosing experiments. This adult age range was selected for several reasons: (a) adult subjects are likely to remain committed to all three components of the study; (b) adults will understand the need to provide reliable feedback on taste and tolerance of the test breakfast meal and the entire malabsorption test procedure; and (c) adult subjects are able to plan the experimental day for full cooperation with the multiple phlebotomy events from 0700 to 1500 hours.
Upon arrival at the study center, subjects had their weight and height measured and an experienced phlebotomist inserted a self-retaining intravenous catheter with a heparin lock for serial blood sampling. After initially drawing 2 milliliters of blood into a sterile syringe, the experimental blood sample (2 milliliters) was drawn and immediately stored in a 4-milliliter serum separator tube. Thereafter, the initial 2 milliliters of blood was infused back into the catheter followed by 2 milliliters of heparin flush. After the baseline blood samples were obtained, the subjects drank an approximately 8 to 12 ounce liquid test breakfast meal. This meal contained one to three doses of PA and THA in a random distribution. Subjects were asked to consume the test breakfast meal within five minutes. Thereafter, serial blood samples were obtained at regular intervals over a period ranging from 30 minutes to 24 hours. During the initial eight-hour period, subjects were permitted to ingest non-caloric and non-caffeinated beverages. A study protocol lunch of known fat content was provided and actual food intake was recorded. Ambulation was limited to maintain adherence to the 30 to 60 minute intervals in the blood sampling schedule. After completion of the blood sampling, the catheter was removed, a snack was offered, and the subjects were encouraged to consume a full meal. The lipid doses (mg/kg) of PA and THA used in this experiment were based on doses 10-fold higher than similar fats used to correct essential fatty acid deficiency in cystic fibrosis, and previous studies which used ^13C […] to qualitatively assess fat malabsorption in pancreatic disease (Rosenlund, M. L., et al., 1977;Pediatrics, 59:428-32; Wutzke, K. D., et al., 1999; J. Pediatr. Gastroenterol. Nutr., 29:148-54).
Four healthy control subjects were administered a dose of 30 mg/kg PA and 30 mg/kg THA in the digestible composition (a liquid breakfast shake) after a 12-hour fast. Blood was drawn at baseline before consumption of the shake and then every 30 minutes thereafter until hour 6. […]

[4] = four healthy control subjects, 30 mg/kg PA and 60 mg/kg THA, FIG. 3A, 4, 5A
[5] = four healthy control subjects, 30 mg/kg PA and 90 mg/kg THA, FIG. 6-8

average absorption [1]: approximately 65%
hour by which serum levels increased ([2]; subjects with CF off pancreatic enzymes): ≤ 2 h
hour by which increase in absorption was evident ([2]; subjects with CF on pancreatic enzymes): ≤ 2 h
serum levels compared with healthy control subjects ([2]; subjects with CF taking pancreatic enzymes): lower
delay before rise in serum concentration ([3]; four healthy control subjects, 30 mg/kg PA and 30 mg/kg THA, liquid breakfast shake after 12-hour fast, FIG. 2): approximately half
time at which increase in serum level is evident / begins [3, 4]: ≤ 2 h
time of peak serum level [3, 4]: 6 h
time at which increase in serum level is evident [3, 5]: ≤ 2 h
time of peak serum level [3, 5]: 6 h
peak serum level ([3]; four healthy control subjects, 30 mg/kg PA and either 60 or 90 mg/kg THA oral at baseline, FIG. 1 model): approximately 4 mg/dL
time of peak serum level ([3]; four healthy control subjects, 30 mg/kg PA and either 60 or 90 mg/kg THA oral, FIG. 1 model): six
concentration at 8 h ([3]; human, serum, four healthy control subjects, 30 mg/kg PA and either 60 or 90 mg/kg THA oral, FIG. 1 model, read-out: serum level by eight hours post dose): ~10000 ng/mL
Compound: CCCCCCCCCCCCCCC(=O)O [PA, pentadecanoic acid]
pattern of serum response ([3]; six healthy volunteers, PA 2.5 grams and THA 5.0 or 8.0 grams, FIG. 3B): increasing over the first two hours and remaining elevated through hour six
